The nature of data set [1]: Metabolic stability in mouse liver microsomes. The class given is in vitro ADME. To be noted: 1 μM test item, 60 minutes, NADPH. How it is done: (§1) Metabolic stability studies were conducted using mouse, rat, and human liver microsomes. The protocol for the studies with mouse, rat, and human liver microsomes (all from BD Gentest, USA) is provided below. In brief, 0.4 mg protein was preincubated with 2 mM NADPH (cofactor) in phosphate buffer (pH˜7.4) for 15 min at 37° C. and then added with 1 μM test item and incubated further for 60 minutes in triplicate. The reaction mixture was terminated with methanol containing an internal standard and centrifuged further to analyze the test item remaining in the supernatant by LC-MS/MS. The percent parent compound remaining was calculated in comparison with similar samples terminated at 0 minutes.
In general terms: Microsomes from liver hold many membrane-bound enzymes, among them those of drug oxidation.

Data set [2] can be described thus: Metabolic stability in rat liver microsomes. In kind it is in vitro ADME. To be noted: 1 μM test item, 60 minutes, NADPH. How it is done: as §1
Data set [3] can be described thus: Metabolic stability in human liver microsomes. The class given is in vitro ADME. To be noted: 1 μM test item, 60 minutes, NADPH. Here is the method: as §1
Data set [4] deals with AKT phosphorylation in THP-1, HL-60, MOLT-4, RPMI-8226, or DLBCL cells. The data set is described as follows: Assay 3: Inhibition of AKT phosphorylation in leukemic cell lines. The class given is cell-based. To be noted: 48 hours, Western Blotting. Here is the method: Inhibition of AKT phosphorylation in leukemic cell lines: THP-1, HL-60, MOLT-4, RPMI-8226, or DLBCL cells were incubated with desired concentrations of compound for 48 hours. Cells were lysed and pAKT was determined by Western Blotting. Bands were quantified using ImageJ and normalized to actin.

The test system of data set [5] is leukemic cells. The data set is described as follows: Assay 5: Apoptosis in leukemic cell lines (in situ Caspase 3 kit). The class given is cell-based. To be noted: 24 hrs. Here is the method:
Apoptosis in leukemic cells was determined using an in situ Caspase 3 kit (Millipore, US) as outlined below: • Seed leukemic cells at a density of 1×10^6 cells/well in a 6 well plate • Add test compound/DMSO at desired concentrations • Incubate the plate for 24 hrs at 37° C. in 5% CO2 incubator • Collect cells in a 2 ml centrifuge tube • Add 1.6 μL of freshly prepared 5× FLICA reagent and mix cells by slightly flicking the tubes • Incubate tubes for 1 hour at 37° C. under 5% CO2 • Add 2 ml of 1× wash buffer to each tube and mix • Centrifuge cells at <400×g for 5 minutes at room temperature. • Carefully remove and discard supernatant, and gently vortex cell pellet to disrupt any cell-to-cell clumping. • Resuspend cell pellet in 300 ul of 1× wash buffer • Place 100 μL of each cell suspension into each of two wells of a black microtiter plate. Avoid creation of bubbles. • Read […] of each microwell using an excitation wavelength of 490 nm and an emission wavelength of 520 nm • Percent increase in caspase-3 activity manifested by an increase in fluorescence compared to the control blank is to be calculated.

In data set [6] the test system is pAKT in AML patient bone marrow leukemic cells. In words: Assay 6-II: pAKT analysis of AML patient bone marrow sample (pAKT ELISA). The class given is cell-based, human. Here is the method:
6-II: pAKT analysis of AML patient bone marrow sample using pAKT ELISA kit: Mononuclear cells were extracted by the Ficoll method and seeded in plates. The cells were treated by different compounds for 48 hrs before they were analyzed by pAKT ELISA kit following the product protocol. Briefly, 1×10^6 cells were transferred into an ELISA kit well and lyzed with 10 μL 5× Cell Lysis Mix (phospho-AKT 1/2/3 (Ser473) InstantOne™ ELISA Kit, eBioscience, 85-86042). The cells were then incubated with 50 μl antibody cocktail for 1 hr at room temp. on a microplate shaker (˜300 rpm). After incubating with detection reagent, the result was measured using a SpectraMAX Plus microplate spectrophotometer set at 450 nm.
A general note: An ELISA detects its analyte on a solid surface through an enzyme-linked reagent.

The subject of data set [7] is AML patient bone marrow leukemic cells. The data set is described as follows: Assay 6-I: Flow cytometry analysis of apoptotic induction in AML patient bone marrow leukemic cells. In kind it is cell-based, human. How it is done: 6-I: Flow cytometry analysis of apoptotic induction in AML patient bone marrow leukemic cells upon compound treatment using Annexin V and 7-AAD staining: Mononuclear cells were extracted by the Ficoll method and seeded in plates. The cells were treated by different compounds for 48 hrs before they were analyzed by flow cytometry. After washing with PBS, 1×10^5 cells were stained by Annexin V-APC and 7-AAD. Annexin V positive staining measures total apoptotic cells, including early and late apoptotic cells. For Annexin V positive cells, 7-AAD negative signal reflects early apoptotic cells.
For orientation: In flow cytometry, cells or beads pass a laser one at a time.

The test system is the same in data set [8]. In words: Assay 6-III: Cell proliferation analysis of AML patient bone marrow sample (MTS). The class given is cell-based, human. How it is done:
6-III: Cell proliferation analysis of AML patient bone marrow sample using MTS assay: Mononuclear cells were extracted by the Ficoll method and seeded in plates. The cells were treated by different compounds for 48 hrs and 72 hrs before they were analyzed by MTS assay following product instruction. Briefly, 20 μL of the MTS solution was added into each well containing the 100 μL cell suspension, followed by incubation for 4 hours at 37° C., in 95% humidity with presence of 5% CO2. The absorbance of 490 nm (A490) was read using SpectraMAX Plus microplate spectrophotometer.

The test system of data set [9] is Human Multiple Myeloma Cells. In words: Assay 6a: Screening for anticancer activity in human multiple myeloma cells. The class given is cell-based. To be noted: primary multiple myeloma patient cells. Here is the method:
Samples were taken from two patients with newly diagnosed stage II IgG Kappa and stage III IgG Lambd restricted disease. This screening was performed by inducing apoptosis using doses and times determined from the MTT assay. 1-5×10^5 cells were collected by centrifugation. The cells were re-suspended in 500 μl of 1× Binding Buffer. 5 μl of Annexin V-FITC and 5 μl of propidium iodide were added. The cells were incubated at room temperature for 5 minutes in the dark.
Quantification by flow cytometry: Annexin V-FITC binding was analyzed by flow cytometry (Ex=488 nm; Em=530 nm) using FITC signal detector (usually FL1) and PI staining using a phycoerythrin emission signal detector (usually FL2). The results are shown below and in FIG. 1.

Data set [10] relates to immortalized leukemic cells (B, T, and monocytic cell lines). In words: Assay 7: Screening for anticancer activity in various leukemic cell lines (MTT). The class given is cell-based. To be noted: majority of B, 72-96 h, read-out: concentration for 50% growth inhibition. Here is the method:
Proliferation of immortalized leukemic cells representative of various indications was determined by a MTT (3-(4,5-Dimethylthiazol-2-yl)-2,5-diphenyl tetrazolium bromide) assay.

For data set [11], the system named is Primary CLL cells. The data set is described as follows: Assay 8: Screening for anticancer activity in human CLL cells. In kind it is cell-based. How it is done: After 72 hours of incubation, CLL cells were evaluated for cytotoxicity using the colorimetric MTS reagent. Phosphorylated Akt (S473) was measured by flow cytometry after one hour of incubation of test compound and ten minutes of incubation with anti-IgM or anti-IgD. Akt phosphorylation was quantified by median fluorescent intensity (MFI). Of the seven CLL patient samples used for experiments, five had mutated IGHV, five had 13 q deletion or normal cytogenetics determined by fluorescent in situ hybridization, three were ZAP-70 negative, and seven were CD38 negative. IgM expression ranged between 13% and 90%, whereas IgD expression was uniformly elevated.

Data set [12] concerns PI3Kδ signalling in basophils. The data set is described as follows: Assay 4: Inhibition of PI3Kδ signalling in basophils from human whole blood (anti-FcεR1 induced CD63 expression). To be noted: read-out: EC50, inhibition of anti-FcεR1 mediated CD63 expression.
Experimental: PI3Kδ signalling in basophils manifested by an alteration of anti-FcεR1 induced CD63 expression is a useful pharmacodynamic marker determined using the Flow2CAST® kit (Buhlmann Laboratories, Switzerland). Briefly, it involves the following steps: • Mix the anti-coagulated blood sample by inverting the venipuncture tube several times • Prepare fresh and pyrogen-free 3.5 ml polypropylene or polystyrene tubes suitable for Flow Cytometry measurements • Add 49 μl of patient's whole blood to each tube. • Add 1 μl of 10% DMSO (background) or compound (10% DMSO) to the assigned tubes and mix gently. Incubate at room temperature for 15 min • Pipette 50 μl of the Stimulation buffer (background) or anti-FcεRI Ab to each tube • Add 100 μl of Stimulation Buffer to each tube • Mix gently. […] (using an incubator will take about 10 minutes longer incubation time due to less efficient heat transfer) • Add 2 ml pre-warmed (18-28° C.) Lysing Reagent to each tube, mix gently • Incubate for 5-10 minutes at 18-28° C. • Centrifuge the tubes for 5 minutes at 500×g • Decant the supernatant by using blotting paper • Resuspend the cell pellet with 300-800 μl of Wash Buffer • Vortex gently and acquire the data on the flow cytometer within the same day. • Percent CD63 positive cells within the gated basophil population are to be determined in different treatment groups and normalized to vehicle control.

Data on 1 compound can be found in US9150579B2, “Selective PI3K delta inhibitors” (Rhizen Pharmaceuticals SA, priority 2012, dated 2015).

“Also recorded” adds a separate entry of the source.

The term inhibition denotes the relative decrease from the control value, in per cent. One may read the EC50 as the concentration giving half of the maximal effect.

Take `CC(C)Oc1ccc(-c2nn([C@@H](C)c3oc4ccc(F)cc4c(=O)c3-c3cccc(F)c3)c3ncnc(N)c23)cc1F` [Compound B1, (S)-2-(1-(4-amino-3-(3-fluoro-4-isopropoxyphenyl)-1H-pyrazolo[3,4-d]pyrimidin-1-yl)ethyl)-6-fluoro-3-(3-fluorophenyl)-4H-chromen-4-one]: in data set [1], the “Metabolic stability in liver microsomes, Mouse (percent parent compound remaining)” value amounted to 36.6%. Besides, in [2], the “Metabolic stability in liver microsomes, Rat (percent parent compound remaining)” value is listed as 23.1%. Also, the “Metabolic stability in liver microsomes, Human (percent parent compound remaining)” value in data set [3] was found to be 74.9%. The same compound had an inhibition at 1 µM in data set [4] of 50 to 90%. Also, the Caspase-3 activity result in data set [5] is recorded as “dose-dependently induced Caspase-3 activity”. Further, in [6], the “AKT phosphorylation (dose dependence)” value is “dose dependent reduction”. In addition, the inhibition at 0.3 µM in data set [6] (Homo sapiens, Bone marrow cell, 0.3 μM, 48 hrs) was above 50%. Further, the “number of apoptotic cells” value in data set [7] was “concomitant increase in the number of apoptotic cells”. In data set [8], the “cell viability / proliferation” value is reported as “dose dependent reduction in proliferation; also recorded: Dose dependent reduction in cell viability”. The inhibition at 3 µM in data set [9] (Homo sapiens, Multiple myeloma cell, 3.0 μM, read-out: inhibition of PAKT) is above 75%. Also, in [9], the cell viability entry is listed as “Dose dependent reduction in cell viability”. Besides, the IC50 in [10] lay in the range of 500 to 7500 nM. For the same compound, in [11] (48 hours, 0.1 and 25.6 μM), the “apoptosis (caspase-3+/7AAD+)” value is “significantly induced apoptosis”. In addition, the “cytotoxicity (MTS)” value in data set [11] (72 hours, 0.1 and 25.6 μM) was “significantly induced”. In addition, the “Akt phosphorylation (S473) induced by anti-surface immunoglobulin” value in [11] (one hour compound, anti-IgM or anti-IgD, flow cytometry MFI) is “significantly abrogated this effect and returned Akt phosphorylation to baseline”. Moreover, in [12], the EC50 is at most 100 nM.
